Laboratory results as given in US7879996B2, “Water soluble compounds” (priority 2007, dated 2011).

Test: cationite (cation-exchanging) capacity
Assay type: physicochemical

In the case of “2-([60] fullerene [1′,9′:3,4] cyclohexen-1-y1)-5,10,15,20-(tetra magnesium [(4-(N-(4-carboxy butyl) amino) phenyl 2,3-dicarboxylatel]) porphyrin iron (II) [PMC16]”, the cationite capacities is reported as 320-370 meqv/mmol.
